Test results from patent US11702442B2, “Cyclic dinucleotide compounds as sting agonists” (The Regents of the University of California, priority 2019, dated 2023).

Experiments:
[1] = system: STING pathway; experiment: IFN-β mRNA production in RAW 264.7 cells by RT-qPCR; format: cell-based, murine
Protocol: FIGS. 3A-3C provide IFN data. […] RAW 264.7 cells were transfected with 1, 5, 10 μM of c-di-GMP, c-di-^tzGMP, c-G^thGMP, c-di-G^thGMP and c-G^tzGMP, and incubated for 2, 4, 6 h before being lysed by TRIzol. RNA purification and RT-qPCR were conducted following the protocol described in the Experimental Section. FIG. 3B show IFN response after 2, 4, 6 h of incubation with 5 μM of CDNs. […] Two independent assays were performed in triplicates (n=2). Error bars indicate SD. See Yi et al, Tuning the Innante Immune Response to Cyclic Dinucleotides by Using Atomic Mutagenesis, ChemBioChem, Volume 21 (2020).
As most synthetic c-di-GMP analogues activated IRF3, the inventors analyzed their dose and time dependency for inducing IFN-β mRNA production by using RT-qPCR. RAW 264.7 cells were transfected with 1, 5 and 10 μM of CDNs as described above and incubated for 2, 4 and 6 h. Total RNA was isolated and used for RT-qPCR. As shown in FIGS. 3A-3B, c-di-GMP induced the most IFN-β mRNA production 4 h post transfection, whereas the highest response was observed after 2 h for c-di-tzGMP, c-GthGMP, and c-GtzGMP.
RT-qPCR. RAW 264.7 cells were plated on 48-well plates (2.5×10^5 cells per well) and transfected with CDN using the same method as above after 48 h of incubation at 37° C. Cells were then incubate with regular growth medium for designated time, and total RNA was isolated with TRIzol® reagent and purified with RNeasy mini kit (Qiagen) following the manufacturer's protocol. Following elution, RNA yields were evaluated using a Nanodrop spectrophotometer (Nanodrop technologies). RNA samples were converted to cDNA with SuperScript III First-Strand Synthesis kit (Invitrogen) with random hexamers following the manufacturer's protocol. Quantitative PCR (SYBR Green) analysis was performed in duplicates on an Applied Biosystems 7300 Real-time PCR system (Invitrogen). Transcription level of IFN-β gene of each sample was normalized to housekeeping gene TBP and then to untreated samples (UT) using the delta-delta CT method.

[2] = target: T1, rocR (Pseudomonas aeruginosa, UniProt Q9HX69); experiment: rocR-mediated CDN hydrolysis monitored by HPLC; format: biochemical, P. aeruginosa
T1 construct: made in house; host or cells: Escherichia coli BL21(DE3)
T1 sequence (Q9HX69 whole entry): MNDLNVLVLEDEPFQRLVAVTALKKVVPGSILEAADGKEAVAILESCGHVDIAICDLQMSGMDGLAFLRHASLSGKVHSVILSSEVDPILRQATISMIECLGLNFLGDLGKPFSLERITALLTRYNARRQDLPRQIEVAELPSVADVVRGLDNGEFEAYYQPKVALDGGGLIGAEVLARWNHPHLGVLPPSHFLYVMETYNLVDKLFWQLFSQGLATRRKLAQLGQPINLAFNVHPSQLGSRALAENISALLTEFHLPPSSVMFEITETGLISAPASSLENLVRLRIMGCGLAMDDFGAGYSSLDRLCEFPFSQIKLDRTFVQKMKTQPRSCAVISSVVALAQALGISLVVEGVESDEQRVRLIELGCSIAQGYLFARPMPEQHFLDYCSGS
Description: [1a,27] rocR is a PDE that contains an EAL domain and specifically recognizes and cleaves c-di-GMP into the linear dinucleotide pGpG. […] [28a,29]
RocR is reported to follow Michaelis-Menten kinetics. [27c,28a] Scheme 2a was therefore used to analyze the reaction kinetics, where k1 and k−1 describe the enzyme/substrate association and dissociation, respectively, while k2 reflects the cleavage reaction. Equations (10)-(13) were thus used to extract the rate constants. When “asymmetrical” mixed c-di-GMP analogues are treated with rocR, the enzyme may, in principle, recognize and cleave either phosphodiester bonds, producing pN1pN2 and pN2pN1. Assuming the two products result from different binding orientation of the heterodimeric CDNs, Scheme 2b is therefore introduced to model the cleavage reactions, where k1, k−1 and k2 reflect the association/dissociation and cleavage of the heterodimeric CDN in one orientation, respectively, and k3, k−3 and k4 reflect the other. Equations (14)-(19) were used to extract the rate constants.
Equations(10)-(19) d[S]/dt=−k1[E][S]+k−1[ES] (10) d[E]/dt=−k1[E][S]+k−1[ES]+k2[ES] (11) d[P]/dt=k2[ES] (12) d[ES]/dt=k1[E][S]−k−1[ES]−k2[ES] (13) d[S]/dt=−k1[E][S]+k−1[ES1]−k3[E][S]+k−3[ES2] (14) d[P1]/dt=k2[ES1] (15) d[P2]/dt=k4[ES2] (16) d[E]/dt=−(k1+k3)[E][S]+(k−1+k2)[ES1]+[…][ES2]] (17) d[ES1]/dt=k1[E][S]−k−1[ES1]−k2[ES1] (18) d[ES2]/dt=k3[E][S]−k−3[ES2]−k4[ES2] (19)
CDN hydrolysis with rocR. […] of CDN was incubated with 100 nM of rocR in a buffer containing 100 mM Tris-HCI, pH 8, 20 mM KCI, 25 mM MgCl2 at 37° C. Aliquots of the reaction mixture were taken out at designated time points and quenched with 100 mM CaCl2. All aliquots were filtered before subjected to reverse-phase HPLC analysis. The reaction mixture was separated by Sepax Bio C-18 column (250×10 mm, 5 µm particle size) with a gradient of 0.1-15% of 10 mM NH4OAc, pH7 in Me0H in 12 minutes at 25° C. or 50° C. (only for reactions of c-GtzGMP and c-di-tzGMP) on an Agilent 1200 series HPLC system (Agilent Technologies).
Data Analysis and curve fitting. […] The relative concentrations were plotted against time.

[3] = system: STING pathway; experiment: IRF3 phosphorylation in RAW 264.7 cells (immunoblot pIRF3 vs β-actin); format: cell-based, murine; details: RAW 264.7, 1, 5 and 10 μM CDN, 2 h after transfection
Protocol: FIGS. 2A-2B show IRF3 phosphorylation induced by c-di-GMP and its analogues. […] 1, 5 and 10 μM of each CDN was used to transfect RAW 264.7 cells. Cells were lysed with NP-40 lysis buffer 2 h post transfection, 20 μg of total protein was loaded on SDS-polyacrylamide gel. Proteins were transferred to PVDF membrane after gel electrophoresis, and immunoblotted against pIRF3 and β-actin. […] The y-axis indicates relative intensity of pIRF3 compare to β-actin.
To analyze the immunostimulatory effects of all synthetic CDNs in greater detail, RAW 264.7 cells were treated with various concentrations of c-di-GMP, c-di-tzGMP, c-di-thGMP, c-GthGMP and c-GtzGMP and the phosphorylation of IRF3 to pIRF3 was evaluated. CDNs were thus transfected into RAW 264.7 murine cells with digitonin as described in previous studies.[7b,16] Cells were then lysed with NP-40 buffer 2 h after transfection, and total protein was collected for immunoblotting against phosphorylated IRF3 (pIRF3) and β-actin. […] Two other biological replicates produced similar trends (See FIG. S2 in Yi et al, ChemBioChem, Volume 21 (2020)).
Immunoblotting. RAW 264.7 cells were plated on 24-well plates (5×10^5 cells per well) and incubate at 37° C. for 48 h. Cells were then transfected with 1-10 μM of CDN in a permeabilization buffer containing 10 μg/mL digitonin, 50 mM HEPES, pH 7, 100 mM KCl, 3 mM MgCl2, 85 mM sucrose, 1 mM ATP, 0.1 mM DTT, 0.2% BSA for 30 mins at 37° C., then incubated with regular growth medium for 2 h. Cells were lysed with NP-40 lysis buffer containing protease inhibitor cocktail (Roche), PhosSTOP (Roche) and PMSF, and total protein was collected and quantified by BCA assay. Protein extracts were resolved by SDS-PAGE with 7.5% gel and transferred to PVDF membrane. Proteins were detected with the following primary antibodies: rabbit anti-pIRF3 monoclonal antibody (Cell Signaling Technology), mouse anti-β actin monoclonal antibody (Sigma-Aldrich).

`Nc1nc2c([C@@H]3O[C@@H]4COP(=O)(O)O[C@H]5[C@@H](O)[C@H](n6cnc7c(=O)[nH]c(N)nc76)O[C@@H]5COP(=O)(O)O[C@H]4[C@H]3O)snc2c(=O)[nH]1` [c-G^tzGMP] was tested, and the “IFN-β mRNA production / IFN response” value ([1]; RAW 264.7, 1, 5, 10 μM CDN, 2, 4, 6 h) was “earlier and stronger maximum IFN-β response compared to the native c-di-GMP”, the “time post transfection of highest IFN-β mRNA production” value ([1]; RAW 264.7, 1, 5 and 10 μM CDN, 2, 4 and 6 h tested) was 2 h and the “order of IFN-β induction” value ([1]; RAW 264.7, RT-qPCR, FIG. 3) was “c-GthGMP>c-di-tzGMP>c-GtzGMP>c-di-GMP>c-di-thGMP”. The “k2 (cleavage reaction)” value ([2]; 100 nM rocR, 37° C.) was 3.07 ± 0.25 s⁻¹, the k2 ([2]; 100 nM rocR, 37° C., Table 3) was 0.096 ± 0.091 s⁻¹ and the k3 ([2]; 100 nM rocR, 37° C., Table 3) was 3.07 ± 0.25 s⁻¹. For the same compound, the k3 ([2]; 100 nM rocR, 37° C., association in second orientation of heterodimeric CDN) was 1.8e+06 ± 100000 M⁻¹ s⁻¹, the k4 ([2]; 100 nM rocR, 37° C., cleavage in second orientation) was 0.34 ± 0.01 s⁻¹ and the “k−3” value ([2]; 100 nM rocR, 37° C., dissociation in second orientation) was 0.135 ± 0.007 s⁻¹. For the same compound, the k1 ([2]; 100 nM rocR, 37° C., enzyme/substrate association) was 1.85e+06 ± 70000 M⁻¹ s⁻¹, the “order of gradually reduced rocR hydrolysis rate” value ([2]; FIG. 10F) was “c-di-GMP, c-di-^tzGMP, c-G^tzGMP, c-G^thGMP and lastly c-di-^thGMP” and the “final percentage of product P1” value ([2]; Scheme 2b) was 58%. The “final percentage of product P2” value ([2]; Scheme 2b) was 42%, the “products of rocR-mediated cleavage” value ([2]; mixed CDNs, HPLC) was “two products in nearly the same amount” and the “IRF3 phosphorylation (pIRF3), concentration dependence” value [3] was “Increasing amounts of phosphorylated IRF3”.
